Test results taken from patent US20140302113A1, “SYSTEMS, DEVICES, AND METHODS FOR EMBEDDING DRUG MOLECULES INTO MEDICAL CATHETERS OR TUBES” (priority 2011, published 2014).
Read-outs that look alike come from different tables or passages of the source. One block for each compound: values may come before it.

What was measured:
[1] = format: physicochemical; conditions: loaded catheter in Example 4
Method: 0.16 g of chlorhexidine diacetate was dissolved in 15.8 gram distilled water in a glass jar to form a clear solution. A section of a silicone coated latex Foley catheter (Bardia Foley Catheter, 16 Fr. Reorder No. 123516A, Lot MYUDR067), approximately 16 cm long, was placed into the jar and completely submerged in the solution. 0.08 g of a 10 wt % NaOH solution was added into the loading solution to increase the pH. […] The jar was closed with a cap and placed into an oven with temperatures cycling between about 62° C. and 68° C. The jar was kept in the oven for the next 120 hours and was shaken occasionally during the 120 hour heat treatment period.
The release rates of chlorhexidine from the loaded catheter in Example 4 were measured as follows. The catheter section was thoroughly washed and cut into two pieces, Section A (7.774 cm) and Section B (8.055 cm). Each section was submerged into 17 mL of a 0.15 M pH7.4 phosphate buffer held in a glass vial, which was placed into a 37° C. water bath. At each time point, the catheter section was retrieved from the glass vial, dried, and placed into another glass vial containing 17 mL of a fresh pH 7.4 phosphate buffer. The vial was then placed into the 37° C. water bath. The amount of chlorhexidine in the solution remaining in the first vial was measured with HPLC. This process was repeated at each time point. The average flux of chlorhexidine released from the catheter wall during the period between the current and previous time points was calculated by dividing the total amount of chlorhexidine in the solution (microgram) by the total surface area of the catheter section (cm^2) and by the length of time between the two time points (hour). The result is the amount of chlorhexidine released per square centimeter of the catheter wall per hour. The average chlorhexidine release flux and the average amount of chlorhexidine released from each square centimeter of the catheter wall per 24 hour period are listed in Table 3.

[2] = Foley catheter of Example 6
Method: The tip and the discharge end were discarded because they would not be expected to touch the patient's mucosa during the catheter use. […] The holes on both ends of each of the four catheter sections were blocked. Each of the four catheter sections was placed into a glass scintillation vial. A 0.15 M PBS solution with pH 7.4 was used as release medium. 20.7 mL of the medium was added into the vial to submerge the entire catheter section. The vial was closed tightly and a vinyl tape was wrapped around the cap to prevent solvent evaporation. The vial was placed into a 37° C. water bath with no shaking (mimicking human use), and the time was set as t=0. […] The catheter sections was removed from the vial, dried with a tissue, and placed into a new vial with the same amount of release medium. The new vial was then put back into the same water bath. This process was repeated at each time point. The samples were analyzed with HPLC.

[3] = solution with pH about 7.4; cited from earlier work

period with more than 1 microgram of chlorhexidine released from each square centimeter of wall surface per 24 hour [1]: at least 11 days | Average Chlorhexidine Amount/cm^2/24 hr ([1]; time 0.17 day): 218 micrograms | Average Chlorhexidine Amount/cm^2/24 hr ([1]; time 0.5 day): 43.9 micrograms | Average Chlorhexidine Amount/cm^2/24 hr ([1]; time 1.1 day): 21.5 micrograms | Average Chlorhexidine Amount/cm^2/24 hr ([1]; time 1.6 day): 13.1 micrograms | Average Chlorhexidine Amount/cm^2/24 hr ([1]; time 2 day): 10.2 micrograms | Average Chlorhexidine Amount/cm^2/24 hr ([1]; time 2.5 day): 4.5 micrograms | Average Chlorhexidine Amount/cm^2/24 hr ([1]; time 3 day): 4.3 micrograms | Average Chlorhexidine Amount/cm^2/24 hr ([1]; time 3.5 day): 2.6 micrograms | Average Chlorhexidine Amount/cm^2/24 hr ([1]; time 4.0 day): 3.3 micrograms | Average Chlorhexidine Amount/cm^2/24 hr ([1]; time 4.5 day): 3.2 micrograms | Average Chlorhexidine Amount/cm^2/24 hr ([1]; time 5 day): 3.2 micrograms | Average Chlorhexidine Amount/cm^2/24 hr ([1]; time 5.5 day): 2.9 micrograms | Average Chlorhexidine Amount/cm^2/24 hr ([1]; time 6 day): 2.6 micrograms | Average Chlorhexidine Amount/cm^2/24 hr ([1]; time 6.5 day): 2.2 micrograms | Average Chlorhexidine Amount/cm^2/24 hr ([1]; time 7 day): 1.8 micrograms | Average Chlorhexidine Amount/cm^2/24 hr ([1]; time 8 day): 1.2 micrograms | Average Chlorhexidine Amount/cm^2/24 hr ([1]; time 8.5 day): 1.4 micrograms | Average Chlorhexidine Amount/cm^2/24 hr ([1]; time 9.0 day): 1.7 micrograms | Average Chlorhexidine Amount/cm^2/24 hr ([1]; time 10.0 day): 2.0 micrograms | Average Chlorhexidine Amount/cm^2/24 hr ([1]; time 11 day): 1.1 micrograms | Average Chlorhexidine Amount/cm^2/24 hr ([1]; time 12 day): 0.8 micrograms | Average Released Chlorhexidine Amount/cm^2/24 hr ([2]; time 0.17 day): 2.2 micrograms | Average Released Chlorhexidine Amount/cm^2/24 hr ([2]; time 0.5 day): 3.8 micrograms | Average Released Chlorhexidine Amount/cm^2/24 hr ([2]; time 1.0 day): 2.8 micrograms | Average Released Chlorhexidine Amount/cm^2/24 hr ([2]; time 1.5 day): 3.4 micrograms | Average Released Chlorhexidine Amount/cm^2/24 hr ([2]; time 2 day): 3.2 micrograms | Average Released Chlorhexidine Amount/cm^2/24 hr ([2]; time 2.5 day): 2.4 micrograms | Average Released Chlorhexidine Amount/cm^2/24 hr ([2]; time 3.1 day): 1.6 micrograms | Average Released Chlorhexidine Amount/cm^2/24 hr ([2]; time 3.6 day): 1.5 micrograms | Average Released Chlorhexidine Amount/cm^2/24 hr ([2]; time 4 day): 1.7 micrograms | Average Released Chlorhexidine Amount/cm^2/24 hr ([2]; time 4.5 day): 1.0 micrograms | Average Released Chlorhexidine Amount/cm^2/24 hr ([2]; time 5 day): 1.3 micrograms | Average Released Chlorhexidine Amount/cm^2/24 hr ([2]; time 5.5 day): 1.0 micrograms | Average Released Chlorhexidine Amount/cm^2/24 hr ([2]; time 6.5 day): 0.6 micrograms | Average Released Chlorhexidine Amount/cm^2/24 hr ([2]; time 7 day): 0.7 micrograms | Average Released Chlorhexidine Amount/cm^2/24 hr ([2]; time 7.5 day): 0.6 micrograms | Average Released Chlorhexidine Amount/cm^2/24 hr ([2]; time 8 day): 0.5 micrograms | Average Released Chlorhexidine Amount/cm^2/24 hr ([2]; time 9 day): 0.5 micrograms | Average Released Chlorhexidine Amount/cm^2/24 hr ([2]; time 9.5 day): 0.5 micrograms | Average Released Chlorhexidine Amount/cm^2/24 hr ([2]; time 10 day): 0.5 micrograms | Average Released Chlorhexidine Amount/cm^2/24 hr ([2]; time 11 day): 0.5 micrograms | Average Released Chlorhexidine Amount/cm^2/24 hr ([2]; time 12 day): 0.5 micrograms | Average Released Chlorhexidine Amount/cm^2/24 hr ([2]; time 14 day): 0.4 micrograms
Structure (SMILES): [H]/N=C(\N/C(=N/[H])NCCCCCCNC(=N)NC(=N)Nc1ccc(Cl)cc1)Nc1ccc(Cl)cc1 [Chlorhexidine, chlorhexidine]

Structure (SMILES): CC(=O)O.CC(=O)O.NC(=N\CCCCCC/N=C(N)/N=C(\N)Nc1ccc(Cl)cc1)/N=C(\N)Nc1ccc(Cl)cc1 [Chlorhexidine diacetate, chlorhexidine diacetate]
concentration that can be dissolved in water [3]: higher than 1.5 wt %
